Measured values from patent publication US11053190B2, “Alpha-aminoamide derivative compound and pharmaceutical composition comprising same” (NEUROBIOGEN CO., LTD., priority 2014, dated 2021).
Where two headings read alike, the source gives them in different places.

Assays:
[1] = target: T1, human-derived monoamine oxidase B (Homo sapiens, UniProt P27338); experiment: Effect of inhibiting activity of monoamine oxidase B (MAO-B assay); format: biochemical; settings: Amplex Red, benzylamine substrate
T1 sequence (P27338 1-520): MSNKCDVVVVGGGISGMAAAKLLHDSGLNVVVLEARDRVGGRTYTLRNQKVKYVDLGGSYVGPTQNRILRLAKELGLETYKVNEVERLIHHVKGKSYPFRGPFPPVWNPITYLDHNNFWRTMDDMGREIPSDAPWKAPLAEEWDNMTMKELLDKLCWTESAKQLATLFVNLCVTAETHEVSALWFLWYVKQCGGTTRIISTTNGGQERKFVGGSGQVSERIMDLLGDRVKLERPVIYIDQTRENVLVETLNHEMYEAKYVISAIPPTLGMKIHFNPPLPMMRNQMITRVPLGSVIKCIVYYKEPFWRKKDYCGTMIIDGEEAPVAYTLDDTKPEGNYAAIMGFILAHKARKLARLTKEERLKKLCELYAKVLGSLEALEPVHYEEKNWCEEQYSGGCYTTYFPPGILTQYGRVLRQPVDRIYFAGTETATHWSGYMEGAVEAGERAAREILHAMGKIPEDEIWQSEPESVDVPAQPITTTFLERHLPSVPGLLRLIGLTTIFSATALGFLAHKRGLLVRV

MAO-A = target: T2, MAO-A (Homo sapiens, UniProt P21397); experiment: MAO-A inhibition (Table 1); format: biochemical
T2 sequence (P21397 1-527): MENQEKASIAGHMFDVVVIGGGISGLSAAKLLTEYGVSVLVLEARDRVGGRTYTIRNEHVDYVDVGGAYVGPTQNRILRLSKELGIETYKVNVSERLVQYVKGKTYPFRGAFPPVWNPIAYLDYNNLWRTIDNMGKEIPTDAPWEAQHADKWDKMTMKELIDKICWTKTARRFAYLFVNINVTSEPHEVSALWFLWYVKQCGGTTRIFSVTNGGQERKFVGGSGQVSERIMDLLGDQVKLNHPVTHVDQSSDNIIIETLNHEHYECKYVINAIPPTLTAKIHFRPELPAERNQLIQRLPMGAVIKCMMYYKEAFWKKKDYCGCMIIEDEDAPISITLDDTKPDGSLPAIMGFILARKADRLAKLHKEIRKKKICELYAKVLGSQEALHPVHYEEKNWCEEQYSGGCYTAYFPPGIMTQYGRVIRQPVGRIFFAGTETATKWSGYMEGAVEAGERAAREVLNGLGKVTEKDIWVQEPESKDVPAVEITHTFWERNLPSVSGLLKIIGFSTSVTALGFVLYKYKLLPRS

[2] = test system: dopaminergic neurons in the substantia nigra and the corpus striatum; experiment: MPTP mouse model of Parkinson's disease, TH (tyrosine hydroxylase) immunohistochemistry; format: in vivo; settings: for dopaminergic neuron survivability (TH expression), pre-treatment: from one day before MPTP 20 mg/kg i.p., FIG. 2a
APP/PS1 mouse [3] = experiment: APP/PS1 mouse model of Alzheimer's disease, spike probability of dentate gyrus granule cells; format: in vivo; settings: 2 weeks in drinking water
[4] = test system: DGGCs (dentate gyrus granule cells) of the hippocampus; experiment: Inhibition of channel excitability, electrophysiology; format: cell-based; settings: FIG. 4
Excerpt: In order to investigate the channel inhibitory effect, inhibition of channel excitability was investigated electrophysiologically using DGGCs (dentate gyrus granule cells) of the hippocampus.

obesity model mouse = experiment: HFD (high-fat diet) mouse model of obesity; format: in vivo
Method: 7-week-old mice were divided into 2 groups and were given a normal diet (white, chow) and a high-fat diet (blue, HFD), respectively, for 8 weeks.
The total calorie provided to the normal diet mice and the high-fat diet mice was set to be equal. The average body weight of the normal diet group was measured to be […] at 8 weeks, with about 20% increase from the initial weight of […]. In contrast, the average body weight of the high-fat diet almost doubled to about […].
In addition to the increase in reactive astrocytes, overproduction of γ-aminobutyric acid (GABA) was also detected.

[5] = target: T1, human-derived monoamine oxidase B; experiment: Confirmation of reversible inhibitory effect (washing in centrifugal filter); format: biochemical
APP/PS1 mouse [6] = settings: Jo et al., Nature Medicine 2014, cited from earlier work
[7] = 10 mg/kg oral, treated from day 3 after MPTP, FIG. 2b
[8] = administration for 30 days, FIG. 2c

C[C@H](NCc1ccc(-c2ccccc2F)cc1)C(N)=O [Example 1, (S)-2-(((2′-fluorobiphenyl-4-yl)methyl)amino) propanamide methanesulfonate]
IC50 [1]: > 10 µM

C[C@H](NCc1ccc(-c2cccc(F)c2)cc1)C(N)=O [Example 2, (S)-2-(((3′-fluorobiphenyl-4-yl)methyl)amino) propanamide methanesulfonate]
IC50 [1]: > 10 µM

C[C@H](NCc1ccc(-c2ccc(F)cc2)cc1)C(N)=O [Example 3, (S)-2-(((4′-fluorobiphenyl-4-yl)methyl)amino) propanamide methanesulfonate]
IC50 [1]: > 10 µM

C[C@H](NCc1ccc(-c2ccccc2Cl)cc1)C(N)=O [Example 4, (S)-2-(((2′-chlorobiphenyl-4-yl)methyl)amino) propanamide methanesulfonate]
IC50 [1]: > 10 µM | IC50 (MAO-A): > 100 µM

C[C@H](NCc1ccc(-c2cccc(Cl)c2)cc1)C(N)=O [Example 5, (S)-2-(((3′-chlorobiphenyl-4-yl)methyl)amino) propanamide methanesulfonate]
IC50 [1]: 0.442 µM | IC50 (MAO-A): > 100 µM

C[C@H](NCc1ccc(-c2ccc(Cl)cc2)cc1)C(N)=O [Example 6, (S)-2-(((4′-chlorobiphenyl-4-yl)methyl)amino) propanamide methanesulfonate]
IC50 [1]: 0.416 µM | IC50 (MAO-A): > 100 µM

C[C@H](NCc1ccc(-c2ccc(C(F)(F)F)cc2)cc1)C(N)=O [Example 9, (S)-2-(((4′-trifluoromethylbiphenyl-4-yl)methyl)amino) propanamide methanesulfonate]
IC50 (MAO-A): > 500 µM | dopaminergic neuron survivability (TH expression), pre-treatment ([2]; 10 mg/kg oral): dopaminergic neuron survivability comparable to that of the control group | death of dopaminergic neurons, post-treatment [2, 7]: significantly decreased death of the neurons | recovery of dopaminergic neurons in the substantia nigra, post-treatment ([2]; 10 mg/kg oral, treated from day 3 after MPTP, substantia nigra, FIG. 2b): recovered the dopaminergic neurons in the substantia nigra to a level comparable to that of the control group not treated with MPTP | protection of dopaminergic neurons in the corpus striatum, 30-day administration [2, 8]: protected dopaminergic neurons to a level comparable to that of the control group not treated with MPTP | protection of dopaminergic neurons in the substantia nigra, 30-day administration ([2]; administration for 30 days, substantia nigra, FIG. 2c): protected neurons similarly to the control group | overall efficacy in the three tests on the MPTP mouse model ([2]; compared with selegiline and safinamide): superior efficacy as compared to selegiline and safinamide | efficacy (spike probability) compared with safinamide (APP/PS1 mouse [3]): higher than that of safinamide | spike probability depending on stimulus intensity (APP/PS1 mouse [3]; FIG. 3b): superior efficacy was observed | excitability inhibitory effect ([4]; 10 μM): almost no inhibitory effect | excitability inhibitory effect ([4]; 50 μM): lower inhibitory effect than safinamide | body weight increase due to high-fat diet (obesity model mouse; 10 mg/kg/day and 100 mg/kg/day groups, FIG. 8): inhibited body weight increase due to the intake of the high-fat diet in a concentration-dependent manner | amount of food intake (obesity model mouse; high-fat diet mice, FIG. 8): no difference in the amount of food intake | GFAP (biomarker for reactive astrocytes) in the arcuate nucleus (obesity model mouse; high-fat diet mice, FIG. 9): Remarkable decrease in GFAP | overproduction of GABA in the arcuate nucleus (obesity model mouse; high-fat diet mice, FIG. 9): effective inhibition of the overproduction of GABA | Reversibility ([5]; 1 μM): Reversible | Recovered MAO-B activity ([5]; 1 μM, after washing): >85% | inhibition at 1 µM ([5]; after centrifugal filter and washing with buffer (B), read-out: B. MAO-B inhibition effect): < 15% | inhibition at 1 µM ([5]; without washing (A), read-out: A. MAO-B inhibition effect): 82%

C[C@H](NCc1ccc(-c2cccc(OC(F)(F)F)c2)cc1)C(N)=O [Example 10, (S)-2-(((3′-trifluoromethoxybiphenyl-4-yl)methyl)amino)propanamide methanesulfonate]
IC50 [1]: 0.216 µM | IC50 (MAO-A): > 100 µM

C[C@H](NCc1ccc(-c2ccc(OC(F)(F)F)cc2)cc1)C(N)=O [Example 11, (S)-2-(((4′-trifluoromethoxybiphenyl-4-yl)methyl)amino)propanamide methanesulfonate]
IC50 [1]: 0.098 µM | IC50 (MAO-A): > 100 µM

COc1cccc(-c2ccc(CN[C@@H](C)C(N)=O)cc2)c1 [Example 12, (S)-2-(((3′-methoxybiphenyl-4-yl)methyl)amino)propanamide methanesulfonate]
IC50 [1]: 3.33 µM | IC50 (MAO-A): > 100 µM

COc1ccc(-c2ccc(CN[C@@H](C)C(N)=O)cc2)cc1 [Example 13, (S)-2-(((4′-methoxybiphenyl-4-yl)methyl)amino)propanamide methanesulfonate]
IC50 [1]: 1.06 µM | IC50 (MAO-A): > 100 µM

C[C@@H](NCc1ccc(-c2cccc(F)c2)cc1)C(N)=O [Example 14, methanesulfonate]
IC50 [1]: > 10 µM | IC50 (MAO-A): > 100 µM

C[C@@H](NCc1ccc(-c2ccc(C(F)(F)F)cc2)cc1)C(N)=O [Example 15, (R)-2-(((4′-trifluoromethylbiphenyl-4-yl)methyl)amino)propanamide methanesulfonate]
IC50 (MAO-A): > 100 µM

NC(=O)CNCc1ccc(-c2ccc(C(F)(F)F)cc2)cc1 [Example 16, (R)-2-(((4′-trifluoromethylbiphenyl-4-yl)methyl)amino)acetamide methanesulfonate]
IC50 [1]: 0.126 µM | IC50 (MAO-A): > 100 µM

CC(C)[C@@H](NCc1ccc(-c2ccc(C(F)(F)F)cc2)cc1)C(N)=O [Example 17, (R)-3-methyl-2-(((4′-trifluoromethylbiphenyl-4-yl)methyl)amino)butanamide methanesulfonate]
IC50 [1]: 4.07 µM | IC50 (MAO-A): > 100 µM

CC(C)C[C@@H](NCc1ccc(-c2ccc(C(F)(F)F)cc2)cc1)C(N)=O [Example 18, (R)-4-methyl-2-(((4′-trifluoromethylbiphenyl-4-yl)methyl)amino)pentanamide methanesulfonate]
IC50 [1]: 5.3 µM | IC50 (MAO-A): > 100 µM

C[C@H](NCc1ccc(OCc2cccc(F)c2)cc1)C(N)=O [S-Safinamide, Safinamide, reference compound]
dopaminergic neuron survivability (TH expression), pre-treatment ([2]; 10 mg/kg oral): dopaminergic neuron survivability comparable to that of the control group | death of dopaminergic neurons, post-treatment [2, 7]: significantly decreased death of the neurons | protection of dopaminergic neurons in the corpus striatum, 30-day administration [2, 8]: slightly lower efficacy | efficacy in the Alzheimer's disease model after 2 weeks (APP/PS1 mouse [6]): maintains excellent efficacy | inhibition at 10 µM ([4]; 10 μM, read-out: excitability inhibitory effect): ~40%

C#CCN(C)[C@H](C)Cc1ccccc1 [Selegiline]
efficacy in the Alzheimer's disease model after 2 weeks (APP/PS1 mouse [6]): the efficacy decreases greatly | efficacy in the Alzheimer's disease model after 4 weeks (APP/PS1 mouse [6]; after 4 weeks): no efficacy is observed | efficacy in the Alzheimer's disease model, initially (APP/PS1 mouse [6]; initial): excellent efficacy initially
